From patent US11607458B2 (Georgia State University Research Foundation, Inc, priority 2017, dated 2023)

Assays:
[1] = Determination of the lactonization rate constants (k1) by HPLC; format: physicochemical; conditions: for Lactonization rate constant k1: r.t., PBS (15% DMSO)
Description: General procedure for the determination of the lactonization rate constants. To a 9 mL PBS in a 20-mL vial was added a solution of the respective tetrazine prodrug (500 μL, 500 μM). Then 1 mL of the respective alkyne (50 mM in DMSO) was added to afford a final concentration of 5 mM in PBS (15% DMSO). The reaction was stirred at r.t. Every 30 min about 500 μL the reaction mixture was taken out and 20 μL of them was injected into the HPLC by an autosampler; the rest of them was poured back to the reaction mixture. The reaction rate constant, k1, was determined by fitting the area in HPLC chromatogram of the intermediate versus time using eq. 3: Y=A exp(−k1t) eq. 3 where Y is the intermediate areas, and t is the time.

[2] = HPLC studies of reaction kinetics of tetrazine prodrugs with cyclooctyne alkynes (Kobs, second-order rate constant k2); format: physicochemical; conditions: for Kobs: prodrug 25 μM; for k2 at 37° C. (second order rate constant) / k2 at r.t (second order rate constant): PBS containing 10% DMSO, n = 3
Description: Stock solution preparation. Each of the tetrazine prodrugs (compounds 1b, 1c, and 1d) was dissolved in DMSO to afford a 500-μM stock solution. Each of the alkynes (compounds 2a, 2b, 2c, and 2d) was dissolved in DMSO to afford a 50-mM stock solution. Doxorubicin (Dox) and dansylamino compound (DA) 1.1b were each dissolved in DMSO to afford 1-mM stock solutions.
(§1) HPLC method A.: mobile phase A (10 mM NaH2PO4 in water, pH=5.0) and mobile phase B (ACN), flow rate: 1 mL/min, running time: 30 min, the gradient elution method: 25% B from 0 to 6 min, 25% to 50% B from 6 to 8 min, 50% B from 8 to 15 min, 50% to 99% B from 15 to 20 min, 99% B from 20 to 25 min, 99% to 25% B from 25 to 30 min. Detection wavelength: 256 nm. Column: Waters C18 3.5 μM, 4.6×100 mm. Injection volume: 20 μL.
as §1, with “method B:” for “method A.:”, “method: 30%” for “method: 25%”, “min, 30%” for “min, 25%”, “25 min.” for “25 min,”, “to 30%” for “to 25%”, “Detection wavelength 1: 256, detection wavelength 2: 337” for “Detection wavelength: 256”
General procedures HPLC studies of reaction kinetics. To three 20-ml vials with 9 mL PBS were added a solution of tetrazine prodrug (500 μL, 500 μM). 350 μL, 300 μL and 250 μL DMSO were added to vial respectively, and then 150 μL, 200 μL and 250 μL of the alkyne solution (50 mM in DMSO) were added to the vials to afford final concentrations of alkyne 0.75 mM, 1 mM and 1.25 mM in PBS (10% DMSO, 25 μM prodrug) respectively. The reaction was stirred at r.t or 37° C. respectively. Every 30 min about 500 μL reaction mixtures were taken out and 20 μL of them were injected into the HPLC by the autosampler; the rest of them were poured back to the reaction mixture. (Note: In the cases of prodrugs 1d or 1b reacting with alkyne 2d at 37° C., the final concentrations of 2d in the kinetic studies were 250 μM, 300 μM and 350 μM).
Determination of second-order rate constants. The reaction rate constant, kobs, was calculated for each concentration of the alkyne by fitting the prodrug areas versus time using eq. 1: Y=A exp(−kobst) eq. 1 where Y is the prodrug area, and t is time. The pseudo-first-order rate constant, kobs, was then plotted against the concentration of alkyne to yield the second-order rate constant using eq 2: kobs=k2[Alkyne] eq. 2 where k2 is the second-order rate constant.

With `C#CCOc1ccc(-c2nnc(C(=O)NC3CC(OC4CC(O)(C(=O)CO)Cc5c(O)c6c(c(O)c54)C(=O)c4c(OC)cccc4C6=O)OC(C)C3O)nn2)cc1` (centres unmarked) [1b] the “Lactonization rate constant k1” value ([1]; alkyne 2a 5 mM, Exp 2) was 0.206 h⁻¹, the “Lactonization rate constant k1” value ([1]; alkyne 2a 5 mM, Expt 1) was 0.185 h⁻¹ and the “Lactonization rate constant k1” value ([1]; alkyne 2a 5 mM, Expt. 3) was 0.229 h⁻¹. For the same compound, the “k1 at r.t (lactonization)” value ([1]; alkyne 2a, n = 3) was 0.21 ± 0.04 h⁻¹, the “Lactonization rate constant k1” value ([1]; alkyne 2b 5 mM, Exp 2) was 0.179 h⁻¹ and the “Lactonization rate constant k1” value ([1]; alkyne 2b 5 mM, Expt 1) was 0.223 h⁻¹. For the same compound, the “Lactonization rate constant k1” value ([1]; alkyne 2b 5 mM, Expt. 3) was 0.196 h⁻¹, the “k1 at r.t (lactonization)” value ([1]; alkyne 2b, n = 3) was 0.20 ± 0.04 h⁻¹ and the “k1 at r.t (lactonization)” value ([1]; alkyne 2c, no intermediates observed by HPLC) was “too fast to detect”. For the same compound, the Kobs ([2]; 37° C., alkyne 2a 0.75 mM, Expt. 1) was 0.418 h⁻¹, the Kobs ([2]; 37° C., alkyne 2a 0.75 mM, Expt. 2) was 0.438 h⁻¹ and the Kobs ([2]; 37° C., alkyne 2a 0.75 mM, Expt. 3) was 0.495 h⁻¹. The Kobs ([2]; 37° C., alkyne 2a 1.00 mM, Expt. 1) was 0.546 h⁻¹, the Kobs ([2]; 37° C., alkyne 2a 1.00 mM, Expt. 2) was 0.598 h⁻¹ and the Kobs ([2]; 37° C., alkyne 2a 1.00 mM, Expt. 3) was 0.678 h⁻¹. The Kobs ([2]; 37° C., alkyne 2a 1.25 mM, Expt. 1) was 0.673 h⁻¹, the Kobs ([2]; 37° C., alkyne 2a 1.25 mM, Expt. 2) was 0.739 h⁻¹ and the Kobs ([2]; 37° C., alkyne 2a 1.25 mM, Expt. 3) was 0.857 h⁻¹. The Kobs ([2]; 37° C., alkyne 2b 0.75 mM, Expt. 1) was 0.486 h⁻¹, the Kobs ([2]; 37° C., alkyne 2b 0.75 mM, Expt. 2) was 0.503 h⁻¹ and the Kobs ([2]; 37° C., alkyne 2b 0.75 mM, Expt. 3) was 0.533 h⁻¹. It also gave a Kobs ([2]; 37° C., alkyne 2b 1.00 mM, Expt. 1) of 0.635 h⁻¹, a Kobs ([2]; 37° C., alkyne 2b 1.00 mM, Expt. 2) of 0.672 h⁻¹ and a Kobs ([2]; 37° C., alkyne 2b 1.00 mM, Expt. 3) of 0.622 h⁻¹. It also gave a Kobs ([2]; 37° C., alkyne 2b 1.25 mM, Expt. 1) of 0.783 h⁻¹, a Kobs ([2]; 37° C., alkyne 2b 1.25 mM, Expt. 2) of 0.846 h⁻¹ and a Kobs ([2]; 37° C., alkyne 2b 1.25 mM, Expt. 3) of 0.905 h⁻¹. It also gave a Kobs ([2]; 37° C., alkyne 2c 0.75 mM, Expt. 1) of 0.0607 h⁻¹, a Kobs ([2]; 37° C., alkyne 2c 0.75 mM, Expt. 2) of 0.0671 h⁻¹ and a Kobs ([2]; 37° C., alkyne 2c 0.75 mM, Expt. 3) of 0.0696 h⁻¹. For the same compound, the Kobs ([2]; 37° C., alkyne 2c 1.00 mM, Expt. 1) was 0.0798 h⁻¹, the Kobs ([2]; 37° C., alkyne 2c 1.00 mM, Expt. 2) was 0.0895 h⁻¹ and the Kobs ([2]; 37° C., alkyne 2c 1.00 mM, Expt. 3) was 0.0941 h⁻¹. For the same compound, the Kobs ([2]; 37° C., alkyne 2c 1.25 mM, Expt. 1) was 0.0986 h⁻¹, the Kobs ([2]; 37° C., alkyne 2c 1.25 mM, Expt. 2) was 0.112 h⁻¹ and the Kobs ([2]; 37° C., alkyne 2c 1.25 mM, Expt. 3) was 0.119 h⁻¹. The Kobs ([2]; 37° C., alkyne 2d 0.25 mM, Expt. 1) was 1.90 h⁻¹, the Kobs ([2]; 37° C., alkyne 2d 0.25 mM, Expt. 2) was 1.81 h⁻¹ and the Kobs ([2]; 37° C., alkyne 2d 0.25 mM, Expt. 3) was 1.97 h⁻¹. The Kobs ([2]; 37° C., alkyne 2d 0.3 mM, Expt. 1) was 2.28 h⁻¹, the Kobs ([2]; 37° C., alkyne 2d 0.3 mM, Expt. 2) was 2.15 h⁻¹ and the Kobs ([2]; 37° C., alkyne 2d 0.3 mM, Expt. 3) was 2.38 h⁻¹. It also gave a Kobs ([2]; 37° C., alkyne 2d 0.35 mM, Expt. 1) of 2.65 h⁻¹, a Kobs ([2]; 37° C., alkyne 2d 0.35 mM, Expt. 2) of 2.48 h⁻¹ and a Kobs ([2]; 37° C., alkyne 2d 0.35 mM, Expt. 3) of 2.78 h⁻¹. For the same compound, the “k2 at 37° C. (second order rate constant)” value ([2]; alkyne 2a, 37° C.) was 0.17 M⁻¹ s⁻¹, the “k2 at 37° C. (second order rate constant)” value ([2]; alkyne 2a, 37° C., listed as lb) was 0.17 ± 0.05 M⁻¹ s⁻¹ and the “k2 at r.t (second order rate constant)” value ([2]; alkyne 2a, r.t) was 0.061 ± 0.013 M⁻¹ s⁻¹. The “k2 at 37° C. (second order rate constant)” value ([2]; alkyne 2b, 37° C.) was 0.19 M⁻¹ s⁻¹, the “k2 at 37° C. (second order rate constant)” value ([2]; alkyne 2b, 37° C., listed as lb) was 0.19 ± 0.04 M⁻¹ s⁻¹ and the “k2 at r.t (second order rate constant)” value ([2]; alkyne 2b, r.t) was 0.065 ± 0.013 M⁻¹ s⁻¹. The “k2 at 37° C. (second order rate constant)” value ([2]; alkyne 2c, 37° C.) was 0.025 ± 0.006 M⁻¹ s⁻¹, the “k2 at r.t (second order rate constant)” value ([2]; alkyne 2c, r.t) was 0.0078 ± 0.0009 M⁻¹ s⁻¹ and the “k2 at 37° C. (second order rate constant)” value ([2]; alkyne 2d, 37° C.) was 2.1 M⁻¹ s⁻¹. The “k2 at 37° C. (second order rate constant)” value ([2]; alkyne 2d, 37° C., listed as lb) was 2.1 ± 0.4 M⁻¹ s⁻¹, the “k2 at r.t (second order rate constant)” value ([2]; alkyne 2d, r.t) was 0.36 ± 0.07 M⁻¹ s⁻¹ and the Kobs ([2]; r.t, alkyne 2a 0.75 mM, Expt. 1) was 0.183 h⁻¹. For the same compound, the Kobs ([2]; r.t, alkyne 2a 0.75 mM, Expt. 2) was 0.191 h⁻¹, the Kobs ([2]; r.t, alkyne 2a 0.75 mM, Expt. 3) was 0.185 h⁻¹ and the Kobs ([2]; r.t, alkyne 2a 1.00 mM, Expt. 1) was 0.235 h⁻¹. For the same compound, the Kobs ([2]; r.t, alkyne 2a 1.00 mM, Expt. 2) was 0.246 h⁻¹, the Kobs ([2]; r.t, alkyne 2a 1.00 mM, Expt. 3) was 0.247 h⁻¹ and the Kobs ([2]; r.t, alkyne 2a 1.25 mM, Expt. 1) was 0.289 h⁻¹. The Kobs ([2]; r.t, alkyne 2a 1.25 mM, Expt. 2) was 0.295 h⁻¹, the Kobs ([2]; r.t, alkyne 2a 1.25 mM, Expt. 3) was 0.307 h⁻¹ and the Kobs ([2]; r.t, alkyne 2b 0.75 mM, Expt. 1) was 0.201 h⁻¹. It also gave a Kobs ([2]; r.t, alkyne 2b 0.75 mM, Expt. 2) of 0.195 h⁻¹, a Kobs ([2]; r.t, alkyne 2b 0.75 mM, Expt. 3) of 0.197 h⁻¹ and a Kobs ([2]; r.t, alkyne 2b 1.00 mM, Expt. 1) of 0.261 h⁻¹. It also gave a Kobs ([2]; r.t, alkyne 2b 1.00 mM, Expt. 2) of 0.257 h⁻¹, a Kobs ([2]; r.t, alkyne 2b 1.00 mM, Expt. 3) of 0.261 h⁻¹ and a Kobs ([2]; r.t, alkyne 2b 1.25 mM, Expt. 1) of 0.309 h⁻¹. For the same compound, the Kobs ([2]; r.t, alkyne 2b 1.25 mM, Expt. 2) was 0.318 h⁻¹, the Kobs ([2]; r.t, alkyne 2b 1.25 mM, Expt. 3) was 0.326 h⁻¹ and the Kobs ([2]; r.t, alkyne 2c 0.75 mM, Expt. 1) was 0.0202 h⁻¹. For the same compound, the Kobs ([2]; r.t, alkyne 2c 0.75 mM, Expt. 2) was 0.0209 h⁻¹, the Kobs ([2]; r.t, alkyne 2c 0.75 mM, Expt. 3) was 0.0207 h⁻¹ and the Kobs ([2]; r.t, alkyne 2c 1.00 mM, Expt. 1) was 0.0282 h⁻¹. For the same compound, the Kobs ([2]; r.t, alkyne 2c 1.00 mM, Expt. 2) was 0.0262 h⁻¹, the Kobs ([2]; r.t, alkyne 2c 1.00 mM, Expt. 3) was 0.0278 h⁻¹ and the Kobs ([2]; r.t, alkyne 2c 1.25 mM, Expt. 1) was 0.0353 h⁻¹. It also gave a Kobs ([2]; r.t, alkyne 2c 1.25 mM, Expt. 2) of 0.0341 h⁻¹, a Kobs ([2]; r.t, alkyne 2c 1.25 mM, Expt. 3) of 0.0344 h⁻¹ and a Kobs ([2]; r.t, alkyne 2d 0.75 mM, Expt. 1) of 0.894 h⁻¹. It also gave a Kobs ([2]; r.t, alkyne 2d 0.75 mM, Expt. 2) of 0.976 h⁻¹, a Kobs ([2]; r.t, alkyne 2d 0.75 mM, Expt. 3) of 0.993 h⁻¹ and a Kobs ([2]; r.t, alkyne 2d 1.00 mM, Expt. 1) of 1.18 h⁻¹. For the same compound, the Kobs ([2]; r.t, alkyne 2d 1.00 mM, Expt. 2) was 1.30 h⁻¹, the Kobs ([2]; r.t, alkyne 2d 1.00 mM, Expt. 3) was 1.34 h⁻¹ and the Kobs ([2]; r.t, alkyne 2d 1.25 mM, Expt. 1) was 1.47 h⁻¹. The Kobs ([2]; r.t, alkyne 2d 1.25 mM, Expt. 2) was 1.62 h⁻¹ and the Kobs ([2]; r.t, alkyne 2d 1.25 mM, Expt. 3) was 1.69 h⁻¹.
